# PMC7465669, “Screening of Heteroaromatic Scaffolds against Cystathionine Beta-Synthase Enables Identification of Substituted Pyrazolo[3,4-c]Pyridines as Potent and Selective Orthosteric Inhibitors” (Molecules, 2020)
# Target: T1, cystathionine β-synthase (CBS) (Homo sapiens, UniProt P35520)
# T1 construct: full-length human CBS, GST-fusion
# T1 sequence (P35520 1-551): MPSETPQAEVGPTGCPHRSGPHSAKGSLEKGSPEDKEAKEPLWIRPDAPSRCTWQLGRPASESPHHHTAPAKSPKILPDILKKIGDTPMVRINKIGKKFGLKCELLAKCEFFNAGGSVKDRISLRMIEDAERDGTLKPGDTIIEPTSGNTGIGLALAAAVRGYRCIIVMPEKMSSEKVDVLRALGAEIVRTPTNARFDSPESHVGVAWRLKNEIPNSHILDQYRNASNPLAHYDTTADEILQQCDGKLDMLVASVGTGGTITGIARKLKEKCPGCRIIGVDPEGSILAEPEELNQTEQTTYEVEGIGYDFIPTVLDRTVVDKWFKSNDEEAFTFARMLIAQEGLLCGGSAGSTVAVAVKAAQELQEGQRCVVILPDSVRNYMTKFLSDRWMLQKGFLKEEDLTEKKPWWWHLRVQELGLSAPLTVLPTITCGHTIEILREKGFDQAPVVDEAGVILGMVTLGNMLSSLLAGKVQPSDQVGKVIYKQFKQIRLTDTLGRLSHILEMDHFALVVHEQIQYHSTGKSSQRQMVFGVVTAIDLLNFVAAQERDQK
# Assay: methylene blue H2S assay, recombinant enzyme; confirmed by AzMC assay (IC50 […])
# Format: biochemical
smiles,measurement,value
"COc1ccc(Cn2ncc3cc(Nc4ccc(N5CCN(C)CC5)cc4)nc(N4CCN(C)CC4)c32)cc1 [compound 1, 1]",IC50,11 µM
